Measured values taken from article PMC10768243 (Microbial Cell Factories, 2024).

Biological target: topoisomerase II
Experiment: topoisomerase II activity inhibition assay (isoform not given)
Format: biochemical

SMILES: CC[C@@]1(O)C(=O)OCc2c1cc1n(c2=O)Cc2cc3ccccc3nc2-1 [camptothecin]
- IC50: 0.52 nM
